Values quoted from earlier work as cited in patent publication US8309133B2, “Nanoparticulate quinazoline derivative formulations” (Alkermes Pharma Ireland Limited, priority 2005, dated 2012).
Like-named read-outs stand apart in the source and are kept apart here.

What was measured:
[1] = oral tablet
[2] = water at 37° C.

C#Cc1cccc(Nc2ncnc3cc(OCCOC)c(OCCOC)cc23)c1.Cl [erlotinib HCl, N-(3-ethynylphenyl)-6,7-bis(2-methoxyethoxy)-4-quinazolinamine]
Absorption ([1]; administered with food): 100%
Absorption ([1]; without food): 60%
Solubility in water [2]: very slightly soluble
